Laboratory results published in article PMC6834593, “Chemical activation of divergent protein tyrosine phosphatase domains with cyanine-based biarsenicals” (Scientific Reports, 2019).

Assays:
Type in all cases: biochemical
actPTPκ (PTPkappa) = molecular target: T1, actPTPκ (PTPkappa) (Homo sapiens, UniProt Q15262, H1056C/V1053C/Y1055C); assay: pNPP phosphatase assay (activation, dose dependence); also in-gel fluorescence of labelled protein in lysate
T1 construct: gene PTPRK; His6-tagged catalytic domain, residues 870–1154
T1 sequence (Q15262 869-1153 V1053C/Y1055C/H1056C): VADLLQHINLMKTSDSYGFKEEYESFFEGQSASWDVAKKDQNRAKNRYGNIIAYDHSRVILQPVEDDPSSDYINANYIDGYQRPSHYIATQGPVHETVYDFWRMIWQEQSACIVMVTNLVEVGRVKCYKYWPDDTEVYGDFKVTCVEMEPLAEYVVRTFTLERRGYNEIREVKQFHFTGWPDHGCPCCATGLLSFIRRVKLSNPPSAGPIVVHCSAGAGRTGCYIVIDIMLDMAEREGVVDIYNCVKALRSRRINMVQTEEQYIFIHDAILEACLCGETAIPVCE

[1] = molecular target: T2, actSHP2 (Src-homology-2-domain-containing PTP 2) (Homo sapiens, UniProt Q06124, C333P/V428C/S430C/D431C); assay: pNPP phosphatase assay (activation at […])
T2 construct: gene PTPN11; His6-tagged catalytic domain
T2 sequence (Q06124 247-517 C333P/V428C/S430C/D431C limits assumed): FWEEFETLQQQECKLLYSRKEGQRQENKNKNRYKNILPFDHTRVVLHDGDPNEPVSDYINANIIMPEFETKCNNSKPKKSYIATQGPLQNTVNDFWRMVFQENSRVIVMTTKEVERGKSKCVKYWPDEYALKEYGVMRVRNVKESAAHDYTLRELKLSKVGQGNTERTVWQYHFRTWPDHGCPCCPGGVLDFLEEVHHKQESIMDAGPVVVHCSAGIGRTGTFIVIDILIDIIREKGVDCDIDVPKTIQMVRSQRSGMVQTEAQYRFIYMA

[2] = molecular target: T3, actHePTP (hematopoietic PTP) (Homo sapiens, UniProt P35236, E262C/S263C/T260C); assay: pNPP phosphatase assay (activation, dose dependence); also in-gel fluorescence of labelled protein in lysate
T3 construct: gene PTPN7; His6-tagged catalytic domain, residues 65–360
T3 sequence (P35236 65-360 T260C/E262C/S263C): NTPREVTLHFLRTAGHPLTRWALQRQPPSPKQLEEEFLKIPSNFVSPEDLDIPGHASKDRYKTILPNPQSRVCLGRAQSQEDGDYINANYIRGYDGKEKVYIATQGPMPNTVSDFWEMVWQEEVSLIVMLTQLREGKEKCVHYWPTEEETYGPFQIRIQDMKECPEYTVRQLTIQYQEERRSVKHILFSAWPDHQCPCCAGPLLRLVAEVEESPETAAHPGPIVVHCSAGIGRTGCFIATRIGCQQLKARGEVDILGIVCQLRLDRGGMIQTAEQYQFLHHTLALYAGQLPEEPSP

**Q.** How did the AC50 (actPTPκ (PTPkappa)) turn out when `CC1(C)C(/C=C/C=C/C=C2/N(CCCCS(=O)(=O)O)c3ccc([As]4SCCS4)cc3C2(C)C)=[N+](CCCCS(=O)(=O)[O-])c2ccc([As]3SCCS3)cc21` [AsCy5] was run?
**A.** ~600 nM

**Q.** And the “pNPP phosphatase assay (activation at 1 μM)” value [1]?
**A.** Both cyanine-derived biarsenicals, AsCy3 and AsCy5, were more successful in activating actSHP2 than FlAsH and ReAsH

**Q.** What about the AC50 [2] of the same compound?
**A.** ~200 nM
